Patent US20220202884A1 (SENECA THERAPEUTICS, INC., priority 2019, published 2022)
Where a name gives a salt, the structure may show the parent alone.

Tests used:
[1] = test system: HCT-116 cells (Colorectal cancer cells); assay: SVV mediated killing of drug-pretreated HCT-116 cells; format: cell-based, human; conditions: HCT-116 cells pretreated for 24 hours with compound, FIG. 4
Method: HCT-116 cells (Colorectal cancer cells) were pretreated for 24 hours in pharmaceutical compounds to disrupt innate antiviral responses to allow increased viral mediated killing.

[2] = test system: triple negative breast cancer cells (BT-549); assay: SVV infection, replication and killing of drug-treated BT-549 cells; format: cell-based; conditions: FIG. 2
Excerpt: (§1) In certain instances, infection with Seneca Valley Virus can be toxic to triple negative breast cancer cell lines. In these cases, it is necessary to reduce innate antiviral responses through the use of certain approved pharmaceutical compounds (see FIG. 1, FIG. 2 and FIG. 5).

[3] = test system: HTB-126 cells (triple negative breast cancer, TNBC); assay: Seneca Valley Virus (SVV) mediated killing of drug-pretreated HTB-126 cells; format: cell-based
Excerpt: Standard deviations of replicates are presented as error bars (VP/cell with 1 PFU or TCID50 unit per 100 VPs).
as §1

[4] = test system: U2OS cells (osteosarcoma); assay: SVV mediated killing of drug-pretreated U2OS cells; format: cell-based; conditions: U2OS cells pretreated for 24 hours with compound, FIG. 3
Method: U2OS cells (osteosarcoma) were pretreated for 24 hours in pharmaceutical compounds to disrupt innate antiviral responses to allow increased viral mediated killing.

SMILES | Seneca Valley Virus mediated cell killing [1] | Seneca Valley Virus mediated cell killing ([1]; listed as vorinostat) | susceptibility to virus mediated killing by SVV [2] | Seneca Valley Virus mediated cell killing ([1]; listed as tofacitnib) | enhancement of SVV replication and cell death ([3]; FIG. 5, TNBC cell lines, 1PFU/cell of SVV and 0.8 uM of Tofacintinib) | susceptibility to virus mediated killing by SVV ([3]; HTB-126 cells, FIG. 1 (pretreated 24 hours in 12.5 micromolar tofacitinib, then 50 VP of SVV/cell) and FIG. 5) | Seneca Valley Virus mediated cell killing [4] | Seneca Valley Virus mediated cell killing ([4]; listed as tofacitinib) | Seneca Valley Virus mediated cell killing ([1]; listed as dimethyl fumarate)
O=C(CCCCCCC(=O)Nc1ccccc1)NO [Vorinostat] | increase in cell killing was mainly caused by MAC inhibitors | increased Seneca Valley Virus mediated cell killing | modified and favored the susceptibility to virus mediated killing by SVV | – | – | – | – | – | –
C[C@@H]1CCN(C(=O)CC#N)C[C@@H]1N(C)c1ncnc2[nH]ccc12 [Tofacitinib] | mainly caused by MAC inhibitors (Panobinostat or Vorinostat) instead of the JAK inhibitors | – | modified and favored the susceptibility to virus mediated killing by SVV | smaller effect | substantial enhancement of SVV replication in TNBC cell lines and cell death | modified and favored the susceptibility to virus mediated killing by SVV | augmented SVV mediated cell killing | increased Seneca Valley Virus mediated cell killing | –
COC(=O)/C=C/C(=O)OC [Dimethyl fumarate, dimethyl fumarate] | mainly caused by MAC inhibitors (Panobinostat or Vorinostat) instead of the JAK inhibitors | – | – | – | – | – | increased Seneca Valley Virus mediated cell killing | – | smaller effect
